{"source": "patent US20060093580A1", "about": "“Tolerogenic vaccine and method” (priority 2004, published 2006)", "key": {"[1]": {"system": "CD4^+CD25^− T cells", "procedure": "(I) Cytokine production by 1-but and t-but-treated CD4^+25^− and CD4^+25^+ T cells. CD4^+25^− and CD4^+25^+ T cells were stimulated as described in FIG. 3A. The same supernatants were used to measure the amount of IL-4 (left panel) and IFN-γ (right panel). Closed bars show medium-treated T cells, gray bars show t-but- treated T cells, and open bars show 1-but-treated T cells.\n(A) Effect of 1-butanol on anti-CD3-induced IL-2 production. […] IL-2 production was determined by ELISA of culture supernatants obtained after 24 hours of stimulation.\n(§1) For determination of cell division, T cells were labeled with 1 μM CFSE (Molecular Probes, Eugene, Oreg.) for 15 minutes at 37° C. CFSE-labeled T cells (5×10^5 cells/ml) were cultured with 0.2 μg/ml of anti-CD3 with APCs (T cell-depleted splenocytes, γ-irradiated with 2000 rads, 8×10^5 cells/ml). […] After 72 hours, cells were harvested and stained with antibody against CD4 and CD8. The number of cell divisions was determined by flow cytometry. Exogenous IL-2 was added at 50 units/ml where indicated. For the proliferation assay, ^3H-thymidine (0.5 μCi/well) was added for the last 6 hours of culture. Cytokine assays were performed by enzyme-linked immunoassays as previously described (Singh, N. et al. (1999), J. Immunol. 163:2373-2377)."}, "[2]": {"system": "CD4^+ T cells", "experimental": "Purified CD4 T cells were pre-incubated with 1-but (0.3%), t-but (0.3%), or medium alone for 15 hours. […] These cells were then stimulated with anti-CD3 antibody and γ-irradiated APCs and exogenous IL-2. […] On day 3, cells were washed and plated in medium containing IL-2 but no anti-CD3 or alcohol. On day 7, cells were washed and used for the functional analysis.\nOn day 3, cells were harvested, washed and placed in medium containing 20 units/ml IL-2. On day 7, cells were washed, counted, and used for the regulatory function analysis."}, "[3]": {"system": "CD4^+CD25^− T cells", "test": "3H-thymidine proliferation after anti-CD3 stimulation with or without exogenous IL-2", "assay_type": "cell-based, mouse", "conditions": "0.3%", "procedure": "(§2) (B) 1-butanol effect on the proliferative response of CD4^+CD25^− and CD4^+CD25^+ T cells to anti-CD3 or anti-CD3^+ exogenous IL-2. […] Proliferation of cells was measured as in FIG. 1B.\n(§3) (D) CD4^+CD25^− and CD4^+CD25^+ T cells (2×10^4 cells/well) were stimulated by anti-CD3 in the absence (left panel) or presence (right panel) of exogenous IL-2. […] [3H]-thymidine uptake was measured 72 hours later.\nas §1\nWe also examined the effect of 1-alcohol on the proliferation of CD4^+CD25^− and CD4^+CD25^+ cells. CD4^+CD25^− and CD4^+CD25^+ cells were isolated from splenocytes using a MoFlo cell sorter. Each cell type was stimulated with anti-CD3 antibody in the presence of irradiated APCs with or without the addition of exogenous IL-2. Proliferation was measured by ^3H-thymidine incorporation on day 3."}, "[4]": {"system": "ERK", "test": "Anti-CD3-induced ERK activation (phospho-ERK staining)", "assay_type": "cell-based, mouse", "conditions": "anti-CD3 + APCs, 3 hours", "procedure": "(D) Effect of 1-butanol on antl-CD3-induced ERK activation. CD4 T cells were stimulated with anti-CD3 and APCs for 3 hours and stained with antibody against phospho-ERK. […] Thick lines show the data from stimulated cells and thin lines show data from unstimulated cells.\nTCR stimulation also induces activation of the Ras/ERK pathway, and sustained ERK activation is essential for IL-2 production (Iwashima, M. (May, 2003), Immunol. Review 192; T. Koike et al., J. Biol. Chem. 278:15685-15692)."}, "[5]": {"system": "splenic CD4^+ T cells", "test": "Anti-CD3-induced elevation of intracellular Ca2+ (Fura2-AM)", "assay_type": "cell-based, mouse", "conditions": "added together with stimulating antibody", "procedure": "(C) 1-butanol effect on anti-CD3-induced elevation of intracellular Ca2^+. CD4 T cells were labeled with Fura2-AM and activated with biotin conjugated anti-CD3 and streptavidin. […] Levels of Ca2^+ were determined by the ratio of fluorescence at 340/380 nm.\nTo further elucidate the role of PLD in T cell activation, TCR proximal signaling events were examined. First, the effect of 1-butanol on the elevation of intracellular Ca^2+ was determined. […] Elevation of intracellular Ca^2+ is required for activation of transcription factors, such as NF-AT, which are essential for CD25 and IL-2 expression (Crabtree, G. R. and Olson, E. N. (2002), Cell 109(Suppl):867-879; Hogan, P. G. et al. (Sep. 15, […]), Genes Dev. 17:2205-[…])."}, "[6]": {"system": "splenic CD4 and CD8 T cells", "test": "CFSE cell division of anti-CD3-stimulated splenic T cells", "assay_type": "cell-based, mouse", "conditions": "0.3% alcohol, anti-CD3 + irradiated APCs, 72 hours", "procedure": "as §1"}, "[7]": {"system": "CD4 Foxp3^+ cells", "test": "Foxp3 and CTLA-4 flow cytometry of CD4 T cells expanded with alcohol", "assay_type": "cell-based, mouse", "procedure": "(B) Foxp3 and CTLA4 levels were determined by flow cytometry analysis of CD4^med, CD4^t-but or CD4^1-but cells at day 1 (upper panels) and day 8 (lower panels).\nAfter 3 days of culture with alcohol, cells were expanded in the medium free of alcohol but containing IL-2 for 4 days and analyzed by flow cytometry with Foxp3 and CTLA-4."}, "[8]": {"system": "CD4^+CD25^− T cells", "test": "CD25 expression by flow cytometry after anti-CD3 stimulation", "assay_type": "cell-based, mouse", "conditions": "anti-CD3 + APCs, 16 hours", "procedure": "(§4) After 16 hours of stimulation, expression of CD25 was analyzed by flow cytometry. Dotted lines represent the staining level of unstimulated cells."}, "[9]": {"system": "CD4^+CD25^− T cells", "test": "In vitro suppression assay", "assay_type": "cell-based, mouse", "conditions": "1-butanol and anti-CD3 treatment", "experimental": "CD4^+CD25^− T cells (2.5×10^4 cells) were cultured with graded doses of CD4^med cells (open circles), CD4^t-but cells (open squares) or CD4^1-but cells (closed squares) for 72 hours with anti-CD3 antibody and APCs. Proliferation of cells was measured as in (B).\nCells were cultured as in (C) using equal numbers of CD4^+CD25^− cells and CD4^med cells, CD4^1-but cells, or CD4^t-but cells. Production of IL-2 after 24 hours of co-culture was measured.\n(H) Effect of CD4^med, CD4^t-but, and CD4^1-but cells on cytokine production by CD4^+25^− T cells. CD4^+25^− T cells were stimulated and co-cultured with CD4^med cells (med), CD4^t-but cells (t-but), or CD4^1-but cells (1-but) as described in FIG. 1D. IL-4 and IFN-γ in the culture supernatants were measured by ELISA.\nSuppression of freshly isolated CD4^+CD25^− cells was measured as in FIG. 1C.\nSuppressive effects were measured by ^3H-thymidine incorporation or by cytokine production."}, "[10]": {"system": "CD4^+CD25^+ T cells", "conditions": "0.3%, activation by anti-CD3 and IL-2", "procedure": "as §2, §3, §1\nWe also examined the effect of 1-alcohol on the proliferation of CD4^+CD25^− and CD4^+CD25^+ cells. CD4^+CD25^− and CD4^+CD25^+ cells were isolated from splenocytes using a MoFlo cell sorter. […] Proliferation was measured by ^3H-thymidine incorporation on day 3."}, "[11]": {"system": "CD4^+CD25^+ T cells", "procedure": "as §4"}, "[12]": {"system": "PLD", "conditions": "Thibault 2000; Grenier 2003; cited from earlier work"}, "[13]": {"system": "PLD", "test": "TCR-induced PLD activity (3H-oleate labelling, PA and Pet by TLC)", "assay_type": "cell-based, mouse", "conditions": "100 μM, plate-bound anti-CD3 40 minutes, 0.5% ethanol, primary T cells", "from_the_text": "FIG. 5 Effect of adenosine on TCR-induced PLD activation. (A) Phosphatidic acid production by primary CD4 T cells stimulated with anti-CD3 antibodies in the presence of ethanol (open bar) and adenosine (closed bar) compared with unstimulated T cells. (B) Phosphatidylethanol (Pet) production by primary CD4 Mouse CD4 T cells stimulated with anti-CD3 antibodies in the presence of ethanol (open bar) and adenosine (closed bar) compared with unstimulated T cells.\nMouse CD4 T cells were labeled with ^3H-oleate to measure PLD activity (Zheng, et al. (2003), Biochim. Biophys. Acta. 1643(1-3):25-36). Cells were then washed and activated by plate-bound anti-CD3 for 40 minutes in the presence of 0.5% of ethanol (open bar). Effect of adenosine was examined using the medium containing 100 μM of adenosine (closed bar). Cells were harvested and lipid extracts of cells were separated on TLC plates and bands corresponding to phosphatidic acid (PA) (FIG. 5A) and phosphatidylethanol (Pet) (FIG. 5B) were excised and counted by liquid scintillation."}, "[14]": {"conditions": "anti-CD3 + APCs, 3H-thymidine at 72 hours"}}, "note": "“And” between values parts separate entries of the source, which are not always exact repeats. Equal values may be shown once. “Also recorded” adds a separate entry of the source. Read-outs that look alike come from different tables or passages of the source.", "data": [{"smiles": "CCCCO", "note": "[1-butanol]", "values": [{"measurement": "production of IL-2 by CD4^+CD25^− T cells", "setting": "[1]; anti-CD3, 24 hours, ELISA", "value": "blocked production"}, {"measurement": "IFN-γ production", "setting": "[1]; anti-CD3, ELISA", "value": "abrogated"}, {"measurement": "IL-4 production", "setting": "[1]; anti-CD3, ELISA", "value": "abrogated"}, {"measurement": "Numbers of live cells obtained from 1 × 10^6 CD4^+ T cells", "setting": "[2]", "value": "3.1 ± 0.3 ×10^6 and 2.5 ± 0.5 ×10^6 and 3.4 ± 0.5 ×10^6"}, {"measurement": "cells recovered from 1×10^6 CD4^+CD25^− cells", "setting": "[2]", "value": "5×10^5 cells"}, {"measurement": "cells recovered from 1×10^6 total CD4^+ cells", "setting": "[2]", "value": "3.6×10^6 cells"}, {"measurement": "decrease in final yield on removal of CD25^+ T cells prior to treatment", "setting": "[2]", "value": 80, "unit": "%"}, {"measurement": "viability or surface antigen expression after pre-incubation", "setting": "[2]", "value": "no difference"}, {"measurement": "reduction of proliferation of CD4^+CD25^− cells", "setting": "[3]; [14]", "value": 80, "unit": "%"}, {"measurement": "proliferation of treated CD4^+CD25^− cells on addition of exogenous IL-2", "setting": "[3]; anti-CD3 + exogenous IL-2", "value": "did not restore proliferation; also recorded: did not rescue the proliferation"}, {"measurement": "CD3-induced elevation of phosphorylated ERK", "setting": "[4]", "value": "abolished"}, {"measurement": "anti-CD3-induced elevation of intracellular Ca^2+", "setting": "[5]", "value": "substantially impaired"}, {"measurement": "anti-CD3 induced cell division", "setting": "[6]", "value": "abrogated cell division"}, {"measurement": "expansion of Foxp3^+ cells (total cell number)", "setting": "[7]; in one week", "value": "more than 10 fold"}, {"measurement": "expression of CD25 by CD4^+CD25^− T cells", "setting": "[8]", "value": "blocked the expression"}, {"measurement": "suppressive activity of population expanded from total CD4^+ T cells", "setting": "[9]", "value": "strong suppressive activity"}, {"measurement": "suppressive function of population expanded from CD4^+ T cells with CD25^+ cells removed", "setting": "[9]", "value": "no suppressive function"}, {"measurement": "effect on proliferation of CD4^+CD25^+ T cells", "setting": "[10]", "value": "no effect"}, {"measurement": "up-regulation of CD25 expression in CD4^+CD25^+ T cells", "setting": "[11]; anti-CD3 + APCs, 16 hours", "value": "not affected"}, {"measurement": "expression of CD69 by CD4^+CD25^+ T cells", "setting": "[11]; not shown", "value": "did not impair"}]}, {"smiles": "Nc1ncnc2c1ncn2[C@@H]1O[C@H](CO)[C@@H](O)[C@H]1O", "note": "[adenosine]", "values": [{"measurement": "PLD activation in neutrophils", "setting": "[12]", "value": "inhibit PLD activation"}, {"measurement": "PLD activity induced by TCR stimulation", "setting": "[13]", "value": "completely abrogated"}]}, {"smiles": "CC(C)(C)O", "note": "[t-butanol, Tert-butanol]", "values": [{"measurement": "Numbers of live cells obtained from 1 × 10^6 CD4^+ T cells", "setting": "[2]; 0.3% alcohol, anti-CD3 + APCs + IL-2, day 7, mean +/− standard deviation, experiments 1-3", "value": "18.5 ± 2.1 ×10^6 and 13 ± 2 ×10^6 and 14 ± 2 ×10^6"}, {"measurement": "effect on proliferation of CD4^+CD25^− cells", "setting": "[3]; [14]", "value": "no significant effect"}, {"measurement": "CD3-induced elevation of phosphorylated ERK", "setting": "[4]", "value": "no detectable effect"}, {"measurement": "anti-CD3-induced elevation of intracellular Ca^2+", "setting": "[5]", "value": "No significant effect"}, {"measurement": "anti-CD3 induced cell division", "setting": "[6]", "value": "no significant effect"}, {"measurement": "cells expressing Foxp3 and CTLA-4 (in words)", "setting": "[7]; 3 days with 0.3% alcohol, then 4 days IL-2 without alcohol", "value": "almost no cells"}, {"measurement": "expression of CD25 by CD4^+CD25^− T cells", "setting": "[8]", "value": "did not elicit a significant effect"}]}]}
